From patent US4450166A, “N-(4,5-Dihydro-thiazol-2-yl)-3-quinoline-carboxamides having anxiolytic activity” (Roussel Uclaf, priority 1981, dated 1984)
Counter-ions that a name gives are not always drawn. Like-named read-outs stand apart in the source and are kept apart here.

Key:
[1] = derivative of French Pat. No. 2,340,735; cited from earlier work
[2] = derivative of French Pat. No. 2,340,735; cited from earlier work; remark: listed apart in the source
[3] = target: receptors for benzodiazepines; assay: Affinity for receptors for benzodiazepines (inhibition of specific bonding of ^3 H diazepam); format: binding; conditions: ^3 H diazepam 10^-9 M, rat cortex, pH of 7.4
Protocol: The test was inspired by Mohler et al. [Science, No. 198 (1977), p. 849-851] and one part of the cortex removed from the brains of males rats weighing an average of […] per 20 parts by volume of 0.32 M of sucrose solution was homogenized. After centrifugation at 1000 g of the homogenized mixture at 0° C. for 10 minutes, the surnagent was centrifuged at 30,000 g at 4° C. for 20 minutes and the culot was suspended in 20 volumes of buffered 50 mM. Tris HCl with a pH of 7.4. The suspension was centrifuged at 30,000 g for 20 minutes at 4° C. and the new culot was suspended in 50 ml of buffered Krebs Tris HCl with a pH of 7.4. Following incubation at 0° C. for 30 minutes, 2 ml of the suspension in the presence of ^3 H diazepam at a concentration of 10^-9 M alone and with increasing concentrations of the test product to determine non-specific fixation with non-radioactive diazepam at a concentration of 10^-6 M.
The incubated suspension were filtered through a Whatman GF/C filter and the filters were washed twice at 0° C. with 5 ml of buffered krebs. Tris HCl with a pH of 7.4. The radioactivity of the filter was measured by liquid scintillation and the activity of the product was expressed in I.C.50 or the concentration which inhibits by 50% the specific bonding of ^3 H diazepam determined graphically.

[4] = Anxiolytic activity (electric shock test, Apelab apparatus, Boissier et al); format: in vivo, mice; conditions: oral; for ED (maximum): Mus musculus, 0.5 h, 30 minutes before the test, groups of 10 mice, shocks over one minute, read-out: oral dose at which the number of delivered shocks increased to the maximum; for anxiolytic activity (in words): mice
Protocol: The Apelab apparatus and protocol used by Boissier et al [European J. Pharmacol., Vol. 4 (1968), p. 145] were used to determine the anxiolytic activity and 4 plates were connected to a stimulator (U. Sachs, Roucaire) which delivered electric shocks of 120 volts for 0.5 seconds. The test was effected on groups of 10 mice who had orally received the test compound 30 minutes before the test. Each animal was individually placed on the apparatus and after 15 seconds of free exploration, it was subjected to an electric shock each time as it passed from plate to another, a minimum of 3 seconds being observed between 2 shocks. The number of delivered shocks was determined over one minute and the obtained results were compared to those observed on control animals by the Dunnett test.

[5] = test system: plasmatic corticosterone level; assay: Action against stress caused by noise by plasmatic corticosterone level; format: in vivo; conditions: Rattus norvegicus; oral; groups of 5 rats fasted 24 hours; noise stress one hour later; read-out: DE50 (oral dose which reduced by 50% the level of corticosterone)
Protocol: The test was effected on groups of 5 rats fasted for 24 hours receiving orally the test compound between 8 and 9 in the morning. One hour later, stress was applied to the animals by placing them in a cage with a noisily operated radio adjacent thereto. 30 minutes later, they received an intraperitonal prick and 10 minutes later, the animals were anesthesized with halothane. 3 ml blood samples were taken after decapitation and the seric levels of corticosterone were determined by a radio-immunological method. Counts were taken of the importance in the male rat of seric concentrations of corticosterone to determine directly without previous extraction of the hormone with 0.1 ml of the sample diluted to 1 to 100. To the test sample were added in hemolysis tubes (12×65 mm) 0.1 ml of an aqueous solution of ^3 H-- corticosterone (5000 spm) and 0.5 ml of buffered phosphate solution (0.02 M; pH of 6.9) containing 0.02% of gelatine and 0.02% of sodium nitride containing a suspension of anticorticosterone antiserum (dilution 1/300,000), sheep antiserum anti γ-globuline of rabbit (dilution of 1/50) and normal serum of rabbit treated with Dextran carbon (dilution 1/500).
The volume was adjusted to 1 ml and the mixture was incubated overnight at 4° C. The mixture was centrifuged at 3000 t/mn for 20 minutes and the surnageant was discarded. The radioactivity contained in the precipitate was measured by a counter after addition of 2 ml of scintillation liquid containing 5% of Soluene 350. The concentration of corticosterone was determined with a standard curve (0-4000 pg) established under the treatment conditions of the samples. The individual seric level of corticosterone expressed in μg/100 ml was determined as the average of 3 tests and the results were compared by the Student test to those obtained in control animals not subjected to stress. The results expressed as DE50 on the oral dose which reduced by 50% the level of corticosterone in the treated animals is reported in Table III.

[6] = Acute toxicity; format: in vivo; conditions: oral, mice

Structure (SMILES) | analgesic activity (in words) [1] | anxiolytic activity (in words) [2] | IC50 [3] [nM] | ED (maximum) [4] [mg/kg] | anxiolytic activity (in words) [4] | ED50 [5] [mg/kg] | DL0 (maximum dose which did not cause any mortality after 8 days) [6] [mg/kg]
O=C(NC1=NCCS1)c1cnc2c(C(F)(F)F)cccc2c1O | has analgesic activity | devoid of anxiolytic activity | – | – | – | – | –
Cl.O=C(NC1=NCCS1)c1cnc2ccccc2c1O [Example 1, N-(4,5-dihydro-thiazol-2-yl)-4-hydroxy-3-quinoline-carboxamide hydrochloride] | – | – | 0.5 | 10 | good anxoilytic activity | 10 | > 400
CCc1ccc2ncc(C(=O)NC3=NCCS3)c(O)c2c1.Cl [Example 2, N-(4,5-dihydro-thiazol-2-yl)-6-ethyl-4-hydroxy-3-quinoline-carboxamide hydrochloride] | – | – | 0.3 | 20 | good anxoilytic activity | 15 | > 400
Cc1ccc2ncc(C(=O)NC3=NCCS3)c(O)c2c1 [Example 3, N-(4,5-dihydro-thiazol-2-yl)-6-methyl-4-hydroxy-3-quinoline-carboxamide hydrochloride] | – | – | 1.5 | – | – | – | –
CC(C)c1ccc2ncc(C(=O)NC3=NCCS3)c(O)c2c1 [Example 4, N-(4,5-dihydro-thiazol-2-yl)-6-isopropyl-4-hydroxy-3-quinoline-carboxamidehydrochloride] | – | – | 2.2 | 20 | good anxoilytic activity | 50 | > 1000
O=C(NC1=NCCS1)c1cnc2cc(Cl)ccc2c1O [Example 5, N-(4,5-dihydro-thiazol-2-yl)-7-chloro-4-hydroxy-3-quinoline-carboxamide hydrochloride] | – | – | 0.9 | – | – | – | > 1000
O=C(NC1=NCCS1)c1cnc2ccc(Cl)cc2c1O [Example 6, N-(4,5-dihydro-thiazol-2-yl)-6-chloro-4-hydroxy-3-quinoline-carboxamide hydrochloride] | – | – | 1 | 50 | good anxoilytic activity | 50 | > 400
O=C(NC1=NCCS1)c1cnc2ccc(F)cc2c1O [Example 7, N-(4,5-dihydro-thiazol-2-yl)-6-fluoro-4-hydroxy-3-quinoline-carboxamide hydrochloride] | – | – | 1.3 | – | – | – | –
COc1ccc2c(O)c(C(=O)NC3=NCCS3)cnc2c1 [Example 8, N-(4,5-dihydro-thiazol-2-yl)-7-methoxy-4-hydroxy-3-quinoline-carboxamide hydrochloride] | – | – | 1.2 | 20 | good anxoilytic activity | – | > 400
Cc1nc2ccccc2c(O)c1C(=O)NC1=NCCS1 [Example 9, N-(4,5-dihydro-thiazol-2-yl)-2-methyl-4-hydroxy-3-quinoline-carboxamide hydrochloride] | – | – | 2.6 | 10 | good anxoilytic activity | 10 | > 1000
